Experimental data: patent US11629154B2, “Tetrahydropyranooxazine derivatives having selective BACE1 inhibitory activity” (SHIONOGI & CO., LTD., priority 2018, dated 2023)

Assays:
[1] = biological target: recombinant BACE1 protein (Homo sapiens (Human), UniProt P56817); experiment: BACE1 biochemical FRET based assay; conditions: for Selectivity: BACE1 versus BACE2; for IC50: FRET, pH 5.0
Source text: (1) BACE1 Biochemical FRET Based Assay
(§1) This assay is a Fluorescence Resonance Energy Transfer Assay (FRET) based assay. The substrate for this assay is an APP derived 13 amino acids peptide that contains the ‘Swedish’ Lys-Met/Asn-Leu mutation of the amyloid precursor protein (APP) beta-site secretase cleavage site. This substrate also contains two fluorophores: (7-methoxycoumarin-4-yl) acetic acid (Mca) is a fluorescent donor with excitation wavelength at 320 nm and emission at 405 nm and 2,4-dinitrophenol (Dnp) is a proprietary quencher acceptor. […] Upon cleavage by BACE1, the fluorophore Mca is separated from the quenching group Dnp, restoring the full fluorescence yield of the donor. The increase in fluorescence is linearly related to the rate of proteolysis.
Briefly in a 384-well format recombinant BACE1 protein in a final concentration of 0.04 μg/mL was incubated for 450 minutes at room temperature with […] substrate in incubation buffer (final concentrations: 33.3 mM Citrate buffer pH 5.0, 0.033% PEG, 3% DMSO) in the absence or presence of compound. Next the amount of proteolysis was directly measured by fluorescence measurement at T=0′-120′ and T=450′ (excitation at 320 nm and emission at 405 nm). Results were expressed in RFU (Relative Fluorescence Units), as difference between T450 and Tx (Tx is chosen depending on the reaction speed between 0 and 120 minutes).
(§2) A best-fit curve was fitted by a minimum sum of squares method to the plot of % Controlmin versus compound concentration. From this an IC50 value (inhibitory concentration causing 50% inhibition of activity) can be obtained.
(§3) LC=Median of the low control values
(§4) =Low control: Reaction without enzyme
(§5) HC=Median of the High control values
=High Control: Reaction with enzyme % Effect=100−[(sample−LC)/(HC−LC)*100] % Control=(sample/HC)*100 % Controlmin=(sample−LC)/(HC−LC)*100

[2] = biological target: recombinant BACE2 protein (Homo sapiens (Human), UniProt Q9Y5Z0); experiment: BACE2 biochemical FRET based assay; conditions: pH 5.0
Source text: (2) BACE2 Biochemical FRET Based Assay
as §1, with “assay” for “assay is an APP derived 13 amino acids peptide that”, “beta-secretase” for “beta-site secretase”, “the beta-secretase,” for “BACE1,”
Briefly in a 384-well format recombinant BACE2 protein in a final concentration of 0.4 μg/mL was incubated for 450 minutes at room temperature with 10 μM substrate in incubation buffer (final concentrations: 33.3 mM Citrate buffer pH 5.0, 0.033% PEG, 2% DMSO) in the absence or presence of compound. Next the amount of proteolysis was directly measured by fluorescence measurement at T=0 and T=450 (excitation at 320 nm and emission at 405 nm). Results were expressed in RFU (Relative Fluorescence Units), as difference between T450 and TO.
as §2, §3, §4, §5

Chain of recombinant BACE2 protein (Q9Y5Z0 63-518): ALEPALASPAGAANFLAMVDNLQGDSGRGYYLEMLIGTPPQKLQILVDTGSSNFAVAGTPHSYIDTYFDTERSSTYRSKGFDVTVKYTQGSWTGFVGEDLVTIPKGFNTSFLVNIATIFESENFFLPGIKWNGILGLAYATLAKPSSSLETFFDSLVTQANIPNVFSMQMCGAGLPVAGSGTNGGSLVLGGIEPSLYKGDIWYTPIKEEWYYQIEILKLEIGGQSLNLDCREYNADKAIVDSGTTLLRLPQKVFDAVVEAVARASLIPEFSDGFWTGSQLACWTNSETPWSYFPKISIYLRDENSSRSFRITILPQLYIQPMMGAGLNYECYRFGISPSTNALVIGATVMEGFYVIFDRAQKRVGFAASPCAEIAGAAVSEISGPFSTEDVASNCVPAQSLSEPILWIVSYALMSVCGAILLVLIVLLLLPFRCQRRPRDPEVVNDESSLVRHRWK
Chain of recombinant BACE1 protein (P56817 46-501): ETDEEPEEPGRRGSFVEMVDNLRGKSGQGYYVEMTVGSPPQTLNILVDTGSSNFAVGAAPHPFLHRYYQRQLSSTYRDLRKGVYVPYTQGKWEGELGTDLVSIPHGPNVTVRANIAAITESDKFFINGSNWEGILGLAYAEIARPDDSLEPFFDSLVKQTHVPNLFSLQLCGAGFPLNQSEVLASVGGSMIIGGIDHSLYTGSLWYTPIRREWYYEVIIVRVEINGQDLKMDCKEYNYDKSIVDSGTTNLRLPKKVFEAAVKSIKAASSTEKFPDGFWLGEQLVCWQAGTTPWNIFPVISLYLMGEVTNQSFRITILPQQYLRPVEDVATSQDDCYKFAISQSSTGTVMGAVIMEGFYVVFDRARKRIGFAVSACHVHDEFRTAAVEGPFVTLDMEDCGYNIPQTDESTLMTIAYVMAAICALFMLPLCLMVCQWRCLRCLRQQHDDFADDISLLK

Selectivity [1]	IC50 [1] [nM]	IC50 [2] [nM]	Structure (SMILES)
44.7	15.5	692	CC[C@@H]1OCC[C@H]2OC(N)=N[C@](CF)(c3cc(NC(=O)c4cnc(OCF)cn4)ccc3F)[C@@H]12 [Compound I-009]
42.7	10.7	457	NC1=N[C@](CF)(c2cc(NC(=O)c3cnc(OCF)cn3)ccc2F)[C@H]2[C@H](CF)OCC[C@H]2O1 [Compound I-010]
31.6	13.2	417	C[C@@H]1OCC[C@H]2OC(N)=N[C@](CF)(c3cc(NC(=O)c4cnc(OCF)cn4)ccc3F)[C@@H]12 [Compound I-011]
53.7	17.4	933	C[C@@H]1C[C@H]2OC(N)=N[C@](CF)(c3cc(NC(=O)c4cnc(OCF)cn4)cc(F)c3F)[C@H]2CO1 [Compound I-061]
24.5	11.2	275	COc1cnc(C(=O)Nc2ccc(Cl)c([C@@]3(CF)N=C(N)O[C@@H]4C[C@@H](C)OC[C@@H]43)c2)cn1 [Compound I-068]
123	11.7	1440	COc1cnc(C(=O)Nc2ccc(F)c([C@@]3(CF)N=C(N)O[C@@H]4C[C@@H](C)OC[C@@H]43)c2)cn1 [Compound I-069]
36.3	4.3	155	C[C@H]1COC[C@H]2[C@@H]1OC(N)=N[C@]2(CF)c1cc(NC(=O)c2cnc(OCF)cn2)ccc1F [Compound I-074]
27.5	26	724	C[C@@H]1COC[C@H]2[C@@H]1OC(N)=N[C@]2(CF)c1cc(NC(=O)c2cnc(OCF)cn2)ccc1F [Compound I-075]
223	8.1	1820	NC1=N[C@](CF)(c2cc(NC(=O)c3cnc(OCC(F)(F)F)cn3)ccc2F)[C@H]2COCC[C@H]2O1 [Compound I-077]
25.1	9.8	245	NC1=N[C@](CF)(c2cc(NC(=O)c3ccc(OC(F)F)cn3)ccc2F)[C@H]2COCC[C@H]2O1 [Compound I-078]
52.7	18.6	1000	NC1=N[C@](CF)(c2cc(NC(=O)c3cnc(OCC(F)F)cn3)ccc2F)[C@H]2COCC[C@H]2O1 [Compound I-079]
53.7	10	537	NC1=N[C@](CF)(c2cc(NC(=O)c3cnc(OCC4(F)CC4)cn3)ccc2F)[C@H]2COCC[C@H]2O1 [Compound I-086]
11.2	55	617	C[C@@H]1C[C@H]2OC(N)=N[C@](CF)(c3cc(NC(=O)c4cnc(C(F)F)cn4)ccc3F)[C@H]2CO1 [Compound I-088]
56.2	9.8	550	C[C@@H]1C[C@H]2OC(N)=N[C@](CF)(c3cc(NC(=O)c4cnc(OC(F)F)cn4)ccc3F)[C@H]2CO1 [Compound I-089]
70.8	5.9	417	CC[C@@H]1OCC[C@H]2OC(N)=N[C@](CF)(c3cc(NC(=O)c4cnc(OC(F)F)cn4)ccc3F)[C@@H]12 [Compound I-094]
28.8	19.1	550	C[C@@H]1C[C@H]2OC(N)=N[C@](CF)(c3cc(NC(=O)c4ccc(C(F)(F)F)cn4)ccc3F)[C@H]2CO1 [Compound I-099]
15.5	16.6	257	Cc1cc(C(F)(F)F)cnc1C(=O)Nc1ccc(F)c([C@@]2(CF)N=C(N)O[C@@H]3C[C@@H](C)OC[C@@H]32)c1 [Compound I-100]
14.1	28.2	398	C[C@@H]1C[C@H]2OC(N)=N[C@](CF)(c3cc(NC(=O)c4ncc(C(F)(F)F)cc4Cl)ccc3F)[C@H]2CO1 [Compound I-101]
28.8	33.9	977	NC1=N[C@](CF)(c2cc(NC(=O)c3cnc(C(F)(F)F)cn3)ccc2F)[C@H]2COCC[C@H]2O1 [Compound I-102]
14.5	21.9	316	NC1=N[C@](CF)(c2cc(NC(=O)c3cnc(C(F)F)cn3)ccc2F)[C@H]2COCC[C@H]2O1 [Compound I-103]
27.5	14.5	398	[2H]C([2H])([2H])Oc1cnc(C(=O)Nc2ccc(F)c([C@@]3(CF)N=C(N)O[C@@H]4CCOC[C@@H]43)c2)cn1 [Compound I-104]
10.2	14.2	148	Cc1cc(C(F)(F)F)cnc1C(=O)Nc1ccc(F)c([C@@]2(CF)N=C(N)O[C@@H]3CCOC[C@@H]32)c1 [Compound I-106]
63.1	53.7	3390	NC1=N[C@](CF)(c2cc(NC(=O)c3cnc(C(F)(F)F)cn3)ccc2F)[C@H]2COCC[C@H]2O1 [Compound I-107]
10.0	20	200	NC1=N[C@](CF)(c2cc(NC(=O)c3ncc(C(F)(F)F)cc3Cl)ccc2F)[C@H]2COCC[C@H]2O1 [Compound I-108]
18.6	22.4	417	CCOc1cnc(C(=O)Nc2ccc(F)c([C@@]3(CF)N=C(N)O[C@@H]4CCOC[C@@H]43)c2)cn1 [Compound I-109]
44.7	21.9	977	NC1=N[C@](CF)(c2cc(NC(=O)c3cnc(OCF)cn3)ccc2F)[C@H]2COC3(CC3)C[C@H]2O1 [II-1]
